From patent publication US20260297070A1, “CYCLIC [COMPOUND LEFT OUT] WRN INHIBITORS” (Nimbus Wadjet, Inc., priority 2023, published 2026) come the findings set out here.

Where only a bound is given, the exact number is not on record here.

In this test the target is T1, human Werner helicase (WRN-BV08, Uniprot Q14191, amino acids 517-1235 with L1074F point mutation) (Homo sapiens, UniProt Q14191, L1074F).
T1 construct: Uniprot Q14191, amino acids 517-1235 with L1074F point mutation; TEV-cleavable 8×His (C, cleaved yes); made in house; host or cells: Sf9 insect cells (baculovirus)
T1 sequence (Q14191 with tags, fused parts or gaps L1074F limits assumed): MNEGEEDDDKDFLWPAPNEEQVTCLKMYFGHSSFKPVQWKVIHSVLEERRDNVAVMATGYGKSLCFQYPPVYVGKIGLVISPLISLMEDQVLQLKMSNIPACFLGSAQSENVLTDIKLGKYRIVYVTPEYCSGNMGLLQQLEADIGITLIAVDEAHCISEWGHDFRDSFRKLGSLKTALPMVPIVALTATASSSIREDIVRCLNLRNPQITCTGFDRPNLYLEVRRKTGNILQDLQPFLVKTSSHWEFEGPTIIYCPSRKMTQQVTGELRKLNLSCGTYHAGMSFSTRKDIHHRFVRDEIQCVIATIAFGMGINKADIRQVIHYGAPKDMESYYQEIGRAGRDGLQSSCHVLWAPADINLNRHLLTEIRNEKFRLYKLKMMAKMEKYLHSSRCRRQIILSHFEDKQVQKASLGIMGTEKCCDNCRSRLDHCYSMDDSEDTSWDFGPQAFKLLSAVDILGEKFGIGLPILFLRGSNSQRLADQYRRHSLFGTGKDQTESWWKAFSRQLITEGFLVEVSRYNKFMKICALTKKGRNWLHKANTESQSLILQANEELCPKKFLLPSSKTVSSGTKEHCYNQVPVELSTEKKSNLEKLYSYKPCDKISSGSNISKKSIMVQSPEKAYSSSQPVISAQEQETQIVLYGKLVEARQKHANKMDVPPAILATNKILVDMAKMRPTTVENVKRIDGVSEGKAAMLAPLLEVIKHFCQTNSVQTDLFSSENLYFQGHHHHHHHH
Description: WRN (BV08) ADP-Glo Assay. The format is biochemical. To be noted: 0.15 nM WRN, 5 μM ATP, 0.1 nM DNA duplex, 15 min preincubation, 60 min at 25° C., pH 7.5, 1% DMSO; read-out: ADP-Glo_hWRN_IC50. The essentials:
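Helicase ATPase activity is measured at 25 °C over 60 min using 0.15 nM enzyme, 5 μM ATP and 0.1 nM DNA duplex, final DMSO 1%. ADP production is detected by luminescence, with IC50 derived by curve fitting.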
With `CC(C)(N)c1ccc(CN(C(=O)Cn2cc(-c3ccc(F)c(F)c3)cn2)C2C=CS(=O)(=O)C2)cc1` (stereo not shown) [I-795, N-{[4-(2-aminopropan-2-yl)phenyl]methyl}-2-[4-(3,4-difluorophenyl)-1H-pyrazol-1-yl]-N-(1,1-dioxo-2,3-dihydro-1lambda6-thiophen-3-yl)acetamide], the IC50 was in the range of 500 to 5000 nM.
For `O=C(c1ccc(CN(C(=O)Cc2ccc(-c3ccc(F)c(F)c3)cc2F)C2C=CS(=O)(=O)C2)cc1)N1CCCCC1` (stereo not shown) [I-796, N-(1,1-dioxo-2,3-dihydro-1lambda6-thiophen-3-yl)-N-{[4-(piperidine-1-carbonyl)phenyl]methyl}-2-{3,3′,4′-trifluoro-[1,1′-biphenyl]-4-yl}acetamide], the IC50 was in the range of 500 to 5000 nM.
As to `CC(C)(O)c1csc(CN(C(=O)Cn2cc(-c3cc(F)c(F)c(F)c3)cn2)C2C=CS(=O)(=O)C2)n1` (stereo not shown) [I-797, N-(1,1-dioxo-2,3-dihydro-1lambda6-thiophen-3-yl)-N-{[4-(2-hydroxypropan-2-yl)-1,3-thiazol-2-yl]methyl}-2-[4-(3,4,5-trifluorophenyl)-1H-pyrazol-1-yl]acetamide], the IC50 is below 500 nM.
Next, `COc1cc(CN(C(=O)C(OCC2COC2)c2ccc(-c3ccc(F)c(F)c3)cc2F)[C@@H]2C=CS(=O)(=O)C2)ccn1` (stereo partly drawn) [I-807, N-[(3R)-1,1-dioxo-2,3-dihydro-1lambda6-thiophen-3-yl]-N-[(2-methoxypyridin-4-yl)methyl]-2-[(oxetan-3-yl)methoxy]-2-{3,3′,4′-trifluoro-[1,1′-biphenyl]-4-yl}acetamide]: 5000 to 10000 nM; `COc1cc(CN(C(=O)C(OCC2CCN(S(C)(=O)=O)C2)c2ccc(-c3ccc(F)c(F)c3)cc2F)[C@@H]2C=CS(=O)(=O)C2)ccn1` (stereo partly drawn) [I-808, N-[(3R)-1,1-dioxo-2,3-dihydro-1lambda6-thiophen-3-yl]-2-[(1-methanesulfonylpyrrolidin-3-yl)methoxy]-N-[(2-methoxypyridin-4-yl)methyl]-2-{3,3′,4′-trifluoro-[1,1′-biphenyl]-4-yl}acetamide]: 500 to 5000 nM; `COc1cc(CN(C(=O)C(OCC2CCCN(S(C)(=O)=O)C2)c2ccc(-c3ccc(F)c(F)c3)cc2F)[C@@H]2C=CS(=O)(=O)C2)ccn1` (stereo partly drawn) [I-809, N-[(3R)-1,1-dioxo-2,3-dihydro-1lambda6-thiophen-3-yl]-2-[(1-methanesulfonylpiperidin-3-yl)methoxy]-N-[(2-methoxypyridin-4-yl)methyl]-2-{3,3′,4′-trifluoro-[1,1′-biphenyl]-4-yl}acetamide]: 500 to 5000 nM.
Next, `COc1cc(CN(C(=O)C(OCC2CN(S(C)(=O)=O)C2)c2ccc(-c3ccc(F)c(F)c3)cc2F)[C@@H]2C=CS(=O)(=O)C2)ccn1` (stereo partly drawn) [I-810, N-[(3R)-1,1-dioxo-2,3-dihydro-1lambda6-thiophen-3-yl]-2-[(1-methanesulfonylazetidin-3-yl)methoxy]-N-[(2-methoxypyridin-4-yl)methyl]-2-{3,3′,4′-trifluoro-[1,1′-biphenyl]-4-yl}acetamide]: 500 to 5000 nM; `COc1cc(CN(C(=O)C(OCC2CCOCC2)c2ccc(-c3ccc(F)c(F)c3)cc2F)[C@@H]2C=CS(=O)(=O)C2)ccn1` (stereo partly drawn) [I-811, N-[(3R)-1,1-dioxo-2,3-dihydro-1lambda6-thiophen-3-yl]-N-[(2-methoxypyridin-4-yl)methyl]-2-[(oxan-4-yl)methoxy]-2-{3,3′,4′-trifluoro-[1,1′-biphenyl]-4-yl}acetamide]: 500 to 5000 nM.
Next, `Cc1nn(-c2ccc(F)cc2F)c(C)c1CC(=O)N(Cc1ccncc1)C1C=CS(=O)(=O)C1` (stereo not shown) [I-816, 2-[1-(2,4-difluorophenyl)-3,5-dimethyl-1H-pyrazol-4-yl]-N-(1,1-dioxo-2,3-dihydro-1lambda6-thiophen-3-yl)-N-[(pyridin-4-yl)methyl]acetamide]: above 50000 nM; `O=C(Cc1ccc(S(F)(F)(F)(F)F)cc1)N(Cc1ccc(=O)[nH]n1)C1C=CS(=O)(=O)C1` (stereo not shown) [I-817, N-(1,1-dioxo-2,3-dihydro-1lambda6-thiophen-3-yl)-N-[(6-oxo-1,6-dihydropyridazin-3-yl)methyl]-2-[4-(pentafluoro-lambda6-sulfanyl)phenyl]acetamide]: 500 to 5000 nM; `O=C1NC(c2ccccc2)CCN1CC(=O)N(Cc1ccncc1)C1C=CS(=O)(=O)C1` (stereo not shown) [I-819, N-(1,1-dioxo-2,3-dihydro-1lambda6-thiophen-3-yl)-2-(2-oxo-4-phenyl-1,3-diazinan-1-yl)-N-[(pyridin-4-yl)methyl]acetamide]: 10000 to 50000 nM.
Consider `COc1cc(C(C)N(C(=O)Cn2cc(-c3cc(F)c(F)c(F)c3)cn2)C2C=CS(=O)(=O)C2)ccn1` (stereo not shown) [I-820, N-(1,1-dioxo-2,3-dihydro-1lambda6-thiophen-3-yl)-N-[1-(2-methoxypyridin-4-yl)ethyl]-2-[4-(3,4,5-trifluorophenyl)-1H-pyrazol-1-yl]acetamide], for which the IC50 was below 500 nM.
In the case of `COc1cc(CN(C(=O)C(C(=O)N(C)CC2CC(F)(F)C2)c2ccc(-c3ccc(F)c(F)c3)cc2F)[C@@H]2C=CS(=O)(=O)C2)ccn1` (stereo partly drawn) [I-822, N-[(3,3-difluorocyclobutyl)methyl]-N′-[(3R)-1,1-dioxo-2,3-dihydro-1lambda6-thiophen-3-yl]-N′-[(2-methoxypyridin-4-yl)methyl]-N-methyl-2-{3,3′,4′-trifluoro-[1,1′-biphenyl]-4-yl}propanediamide], the IC50 is below 500 nM.
Consider `O=C(Cn1cc(-c2cc(F)c(F)c(F)c2)cn1)OCC1(c2csc(CNC3C=CS(=O)(=O)C3)n2)CC1` (stereo not shown) [I-823, [1-(2-{[(1,1-dioxo-2,3-dihydro-1lambda6-thiophen-3-yl)amino]methyl}-1,3-thiazol-4-yl)cyclopropyl]methyl 2-[4-(3,4,5-trifluorophenyl)-1H-pyrazol-1-yl]acetate], for which the IC50 was above 50000 nM.
Take `O=C(Cn1cc(-c2cc(F)c(F)c(F)c2)cn1)N(Cc1cc(C2CC2)ns1)C1C=CS(=O)(=O)C1` (stereo not shown) [I-824, N-[(3-cyclopropyl-1,2-thiazol-5-yl)methyl]-N-(1,1-dioxo-2,3-dihydro-1lambda6-thiophen-3-yl)-2-[4-(3,4,5-trifluorophenyl)-1H-pyrazol-1-yl]acetamide]: the IC50 was below 500 nM.
`CC(C)(O)c1cc(CN(C(=O)Cc2cc(-c3ccc(F)c(F)c3)sn2)[C@@H]2C=CS(=O)(=O)C2)ccn1` [I-825, 2-[5-(3,4-difluorophenyl)-1,2-thiazol-3-yl]-N-[(3R)-1,1-dioxo-2,3-dihydro-1lambda6-thiophen-3-yl]-N-{[2-(2-hydroxypropan-2-yl)pyridin-4-yl]methyl}acetamide]: the IC50 is below 500 nM.
With `CC(O)(c1cc(CN(C(=O)Cn2cc(-c3cc(F)c(F)c(F)c3)cn2)C2C=CS(=O)(=O)C2)ccn1)C1CC1` (stereo not shown) [I-826, N-{[2-(1-cyclopropyl-1-hydroxyethyl)pyridin-4-yl]methyl}-N-(1,1-dioxo-2,3-dihydro-1lambda6-thiophen-3-yl)-2-[4-(3,4,5-trifluorophenyl)-1H-pyrazol-1-yl]acetamide], the IC50 is below 500 nM.
Next, `CC(O)(c1cc(CN(C(=O)Cn2cc(-c3cc(F)c(F)c(F)c3)cn2)C2C=CS(=O)(=O)C2)ccn1)C(F)F` (stereo not shown) [I-827, N-{[2-(1,1-difluoro-2-hydroxypropan-2-yl)pyridin-4-yl]methyl}-N-(1,1-dioxo-2,3-dihydro-1lambda6-thiophen-3-yl)-2-[4-(3,4,5-trifluorophenyl)-1H-pyrazol-1-yl]acetamide]: below 500 nM; `COc1cc([C@H](C)N(C(=O)Cn2cc(-c3cc(F)c(F)c(F)c3)cn2)[C@@H]2C=CS(=O)(=O)C2)ccn1` [I-829, N-[(3R)-1,1-dioxo-2,3-dihydro-1lambda6-thiophen-3-yl]-N-[(1S)-1-(2-methoxypyridin-4-yl)ethyl]-2-[4-(3,4,5-trifluorophenyl)-1H-pyrazol-1-yl]acetamide]: below 500 nM.
Then `CC(C)(O)c1cc(CN(C(=O)Cn2cc(-c3cc(F)c(F)c(F)c3)c(F)n2)[C@@H]2C=CS(=O)(=O)C2)ccn1` [I-832, N-[(3R)-1,1-dioxo-2,3-dihydro-1lambda6-thiophen-3-yl]-2-[3-fluoro-4-(3,4,5-trifluorophenyl)-1H-pyrazol-1-yl]-N-{[2-(2-hydroxypropan-2-yl)pyridin-4-yl]methyl}acetamide], with below 500 nM; and `COc1cc(CN(C(=O)C(OC2CS(=O)(=O)C2)c2ccc(-c3ccc(F)c(F)c3)cc2F)[C@@H]2C=CS(=O)(=O)C2)ccn1` (stereo partly drawn) [I-833, 2-[(1,1-dioxo-1lambda6-thietan-3-yl)oxy]-N-[(3R)-1,1-dioxo-2,3-dihydro-1lambda6-thiophen-3-yl]-N-[(2-methoxypyridin-4-yl)methyl]-2-{3,3′,4′-trifluoro-[1,1′-biphenyl]-4-yl}acetamide], with 10000 to 50000 nM.
Next, `Cc1cccn1-c1ccc(CC(=O)N(Cc2ccc(C(=O)N3CCN(C(=O)CCCc4cn(Cc5ccc(NC(=O)CCOCCOCCOCCOCCNC(=O)CCCC[C@@H]6SC[C@@H]7NC(=O)N[C@@H]76)cn5)nn4)CC3)cc2)C2C=CS(=O)(=O)C2)c(F)c1` (stereo partly drawn) [II-2, 1-{5-[(3aS,4S,6aR)-2-oxo-hexahydro-1H-thieno[3,4-d]imidazol-4-yl]pentanamido}-N-{6-[(4-{4-[4-(4-{[N-(1,1-dioxo-2,3-dihydro-1lambda6-thiophen-3-yl)-2-[2-fluoro-4-(2-methyl-1H-pyrrol-1-yl)phenyl]acetamido]methyl}benzoyl)piperazin-1-yl]-4-oxobutyl}-1H-1,2,3-triazol-1-yl)methyl]pyridin-3-yl}-3,6,9,12-tetraoxapentadecan-15-amide]: 500 to 5000 nM.
